Results as given in patent US5096715A, “Method and means for treating alcoholism by extinguishing the alcohol-drinking response using a transdermally administered opiate antagonist” (Alko Ltd., priority 1989, dated 1992).
Entries after “also recorded” stand apart in the source; their conditions may differ.

What was measured:
[1] = human
[2] = several combinations of vehicles and enhancers; cited from earlier work
[3] = cited from earlier work
[4] = humans; cited from earlier work

Structure (SMILES) | naloxone present to block alcohol reinforcement at end of session ([1]; 4-7 hrs later, transdermal) | systemic delivery rate ([1]; skin area of 900-1000 cm^2) | time to deliver the entire 30 mg systemically ([1]; including lag time of 18 min) | rates for naloxone [2] | half-life in the body [3] | severe side-effects [4]
C=CCN1CC[C@]23c4c5ccc(O)c4O[C@H]2C(=O)CC[C@@]3(O)[C@H]1C5 [naloxone] | Sufficient quantities of naloxone to block alcohol reinforcement would still be present; also recorded: Sufficient amounts of naloxone to block alcohol reinforcement would still be present | about 5 mg/min | half an hour | over 300 μg/cm^2 /hr | desirably short half-life | –
O=C1CC[C@@]2(O)[C@H]3Cc4ccc(O)c5c4[C@@]2(CCN3CC2CC2)[C@H]1O5 [naltrexone] | – | – | – | – | – | free of severe side-effects
